Tested on: Septoria tritici
Assay: Growth assay with Septoria tritici as indicator fungus (photometric)
Assay type: cell-based
Conditions: active ingredient concentration in the spray mixture 1 ppm
Procedure: A growth assay was carried out with Septoria tritici as indicator fungus. The fungal growth was measured photometrically by the increase in absorption or light scattering as a function of mycelium density. The data obtained were converted into percent growth inhibition, the absorption of the untreated controls being defined as 0% inhibition and that of a killed spore suspension as reference as 100% inhibition.
The expected efficacies of combinations of active ingredients were determined using Colby's formula (Colby, S. R. (Calculating synergistic and antagonistic responses of herbicide combinations”, Weeds, 15, pp. 20-22, 1967)) and compared with the observed efficacies.
E=x+y−x·y/100 • E expected efficacy, expressed in % of the untreated control, when using the mixture of the active ingredients A and B at the concentrations a and b • x efficacy, expressed in % of the untreated control, when using the active ingredient A at the concentration a • y efficacy, expressed in % of the untreated control, when using the active ingredient B at the concentration b

For `COC(=O)N(OC)c1ccccc1COc1ccn(-c2ccc(Cl)cc2)n1` [II, Pyraclostrobin], the Growth inhibition was 57%.
